Bridge positions count the residues as written; N and C are the ends. Square brackets hold non-standard residues; d marks the D form. Peptide text beside a SMILES is read from it. Nle = CCCC[C@H](N)C(=O)O

This test deals with T1, human Kv1.3 voltage-gated K+ channel (Homo sapiens, UniProt P22001).
T1 construct: host or cells: CHO-DUKX
T1 sequence (P22001 whole entry): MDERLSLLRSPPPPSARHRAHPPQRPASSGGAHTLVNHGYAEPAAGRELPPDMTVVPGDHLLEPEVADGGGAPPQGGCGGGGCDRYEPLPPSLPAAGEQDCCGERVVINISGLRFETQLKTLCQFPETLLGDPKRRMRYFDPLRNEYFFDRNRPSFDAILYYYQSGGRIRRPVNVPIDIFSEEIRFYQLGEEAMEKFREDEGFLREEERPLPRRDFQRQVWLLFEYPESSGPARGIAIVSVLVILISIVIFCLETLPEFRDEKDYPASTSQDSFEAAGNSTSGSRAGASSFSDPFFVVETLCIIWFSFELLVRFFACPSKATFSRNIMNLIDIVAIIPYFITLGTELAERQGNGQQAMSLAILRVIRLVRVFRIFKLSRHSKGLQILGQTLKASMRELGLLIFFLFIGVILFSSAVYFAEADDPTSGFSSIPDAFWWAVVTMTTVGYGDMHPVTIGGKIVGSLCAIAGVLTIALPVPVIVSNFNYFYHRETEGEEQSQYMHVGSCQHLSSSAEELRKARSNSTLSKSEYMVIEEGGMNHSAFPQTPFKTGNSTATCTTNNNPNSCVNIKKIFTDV
The test can be described thus: cell-based. The conditions noted are these: inhibition of thallium flux, CHO-DUKX cells with human Kv1.3; read-out: IC50.
Consider `CCCC[C@H](NC(=O)[C@@H]1CCCN1)C(=O)N[C@@H](CCC(=O)O)C(=O)N[C@@H](CCCC)C(=O)N[C@@H](CCCNC(=N)N)C(=O)N[C@H]1CSSC[C@@H]2NC(=O)[C@H](CCCCN)NC(=O)CNC(=O)[C@H](Cc3ccccc3)NC(=O)[C@H]([C@@H](C)CC)NC(=O)[C@H](CO)NC(=O)CNC(=O)[C@H]([C@@H](C)CC)NC(=O)[C@H](C)NC(=O)[C@H](C)NC(=O)[C@H](CC(C)C)NC(=O)[C@@H]3CSSC[C@@H](C(=O)N[C@@H](Cc4ccc(O)cc4)C(=O)N4CCC[C@H]4C(=O)N[C@@H](CCCNC(=N)N)C(=O)N[C@@H](CCCNC(=N)N)C(=O)O)NC(=O)[C@H](CCCCN)NC(=O)[C@H](CSSC[C@H](NC(=O)[C@H](CCC(=O)O)NC(=O)[C@H](C(C)C)NC(=O)[C@H](CO)NC(=O)[C@H](C)NC(=O)[C@H](CO)NC1=O)C(=O)N[C@@H](CCCCN)C(=O)N[C@@H](CCC(N)=O)C(=O)N[C@@H](CCCCN)C(=O)N3)NC(=O)[C@H](CCCCN)NC(=O)[C@H](CCCCN)NC(=O)[C@H](CC(N)=O)NC(=O)[C@H](CCCC)NC2=O` [Compound 122] (H-P[Nle]E[Nle]RCSASVECKQKCLAAIGSIFGKC[Nle]NKKCKCYPRR-OH; disulfide 6-27, 12-32, 16-34), for which the IC50 stood at 0.226 nM.

With `CCCC[C@H](NC(=O)[C@@H]1CCCN1)C(=O)N[C@@H](CCC(=O)O)C(=O)N[C@@H](CCCC)C(=O)N[C@@H](CCCNC(=N)N)C(=O)N[C@H]1CSSC[C@@H]2NC(=O)[C@H](CCCCN)NC(=O)CNC(=O)[C@H](Cc3ccccc3)NC(=O)[C@H]([C@@H](C)CC)NC(=O)[C@H](CO)NC(=O)CNC(=O)[C@H]([C@@H](C)CC)NC(=O)[C@H](C)NC(=O)[C@H](C)NC(=O)[C@H](CC(C)C)NC(=O)[C@@H]3CSSC[C@@H](C(=O)N[C@@H](Cc4ccc(O)cc4)C(=O)N4CCC[C@H]4C(=O)N[C@@H](CCCNC(=N)N)C(=O)N[C@@H](Cc4ccc(O)cc4)C(=O)O)NC(=O)[C@H](CCCCN)NC(=O)[C@H](CSSC[C@H](NC(=O)[C@H](CCC(=O)O)NC(=O)[C@H](C(C)C)NC(=O)[C@H](CO)NC(=O)[C@H](C)NC(=O)[C@H](CO)NC1=O)C(=O)N[C@@H](CCCCN)C(=O)N[C@@H](CCC(N)=O)C(=O)N[C@@H](CCCCN)C(=O)N3)NC(=O)[C@H](CCCCN)NC(=O)[C@H](CCCCN)NC(=O)[C@H](CC(N)=O)NC(=O)[C@H](CCCC)NC2=O` [Compound 123] (H-P[Nle]E[Nle]RCSASVECKQKCLAAIGSIFGKC[Nle]NKKCKCYPRY-OH; disulfide 6-27, 12-32, 16-34), the IC50 is 1.04 nM.

`CCCC[C@H](NC(=O)[C@@H]1CCCN1)C(=O)N[C@@H](CCC(=O)O)C(=O)N[C@@H](CCCC)C(=O)N[C@@H](CCCNC(=N)N)C(=O)N[C@H]1CSSC[C@@H]2NC(=O)[C@H](CCCCN)NC(=O)CNC(=O)[C@H](Cc3ccccc3)NC(=O)[C@H]([C@@H](C)CC)NC(=O)[C@H](CO)NC(=O)CNC(=O)[C@H]([C@@H](C)CC)NC(=O)[C@H](C)NC(=O)[C@H](C)NC(=O)[C@H](CC(C)C)NC(=O)[C@@H]3CSSC[C@@H](C(=O)N[C@@H](Cc4ccc(O)cc4)C(=O)N4CCC[C@H]4C(=O)N[C@@H](CCCNC(=N)N)C(=O)N[C@@H](CC(C)C)C(=O)O)NC(=O)[C@H](CCCCN)NC(=O)[C@H](CSSC[C@H](NC(=O)[C@H](CCC(=O)O)NC(=O)[C@H](C(C)C)NC(=O)[C@H](CO)NC(=O)[C@H](C)NC(=O)[C@H](CO)NC1=O)C(=O)N[C@@H](CCCCN)C(=O)N[C@@H](CCC(N)=O)C(=O)N[C@@H](CCCCN)C(=O)N3)NC(=O)[C@H](CCCCN)NC(=O)[C@H](CCCCN)NC(=O)[C@H](CC(N)=O)NC(=O)[C@H](CCCC)NC2=O` [Compound 124] (H-P[Nle]E[Nle]RCSASVECKQKCLAAIGSIFGKC[Nle]NKKCKCYPRL-OH; disulfide 6-27, 12-32, 16-34): the IC50 turned out to be 1.47 nM.

Consider `CCCC[C@H](NC(=O)[C@@H]1CCCN1)C(=O)N[C@@H](CCC(=O)O)C(=O)N[C@@H](CCCC)C(=O)N[C@@H](CCCNC(=N)N)C(=O)N[C@H]1CSSC[C@@H]2NC(=O)[C@H](CCCCN)NC(=O)CNC(=O)[C@H](Cc3ccccc3)NC(=O)[C@H]([C@@H](C)CC)NC(=O)[C@H](CO)NC(=O)CNC(=O)[C@H]([C@@H](C)CC)NC(=O)[C@H](C)NC(=O)[C@H](C)NC(=O)[C@H](CC(C)C)NC(=O)[C@@H]3CSSC[C@@H](C(=O)N[C@@H](Cc4ccc(O)cc4)C(=O)N4CCC[C@H]4C(=O)N[C@@H](CCCNC(=N)N)C(=O)N[C@@H](Cc4c[nH]cn4)C(=O)O)NC(=O)[C@H](CCCCN)NC(=O)[C@H](CSSC[C@H](NC(=O)[C@H](CCC(=O)O)NC(=O)[C@H](C(C)C)NC(=O)[C@H](CO)NC(=O)[C@H](C)NC(=O)[C@H](CO)NC1=O)C(=O)N[C@@H](CCCCN)C(=O)N[C@@H](CCC(N)=O)C(=O)N[C@@H](CCCCN)C(=O)N3)NC(=O)[C@H](CCCCN)NC(=O)[C@H](CCCCN)NC(=O)[C@H](CC(N)=O)NC(=O)[C@H](CCCC)NC2=O` [Compound 125] (H-P[Nle]E[Nle]RCSASVECKQKCLAAIGSIFGKC[Nle]NKKCKCYPRH-OH; disulfide 6-27, 12-32, 16-34), for which the IC50 amounted to 0.383 nM.

With `CCCC[C@H](NC(=O)[C@@H]1CCCN1)C(=O)N[C@@H](CCC(=O)O)C(=O)N[C@@H](CCCC)C(=O)N[C@@H](CCCNC(=N)N)C(=O)N[C@H]1CSSC[C@@H]2NC(=O)[C@H](CCCCN)NC(=O)CNC(=O)[C@H](Cc3ccccc3)NC(=O)[C@H]([C@@H](C)CC)NC(=O)[C@H](CO)NC(=O)CNC(=O)[C@H]([C@@H](C)CC)NC(=O)[C@H](C)NC(=O)[C@H](C)NC(=O)[C@H](CC(C)C)NC(=O)[C@@H]3CSSC[C@@H](C(=O)N[C@@H](Cc4ccc(O)cc4)C(=O)N4CCC[C@H]4C(=O)N[C@@H](CCCNC(=N)N)C(=O)N[C@@H](CCC(=O)O)C(=O)O)NC(=O)[C@H](CCCCN)NC(=O)[C@H](CSSC[C@H](NC(=O)[C@H](CCC(=O)O)NC(=O)[C@H](C(C)C)NC(=O)[C@H](CO)NC(=O)[C@H](C)NC(=O)[C@H](CO)NC1=O)C(=O)N[C@@H](CCCCN)C(=O)N[C@@H](CCC(N)=O)C(=O)N[C@@H](CCCCN)C(=O)N3)NC(=O)[C@H](CCCCN)NC(=O)[C@H](CCCCN)NC(=O)[C@H](CC(N)=O)NC(=O)[C@H](CCCC)NC2=O` [Compound 126] (H-P[Nle]E[Nle]RCSASVECKQKCLAAIGSIFGKC[Nle]NKKCKCYPRE-OH; disulfide 6-27, 12-32, 16-34), the IC50 was 6.49 nM.

For the compound `CCCC[C@H](NC(=O)[C@@H]1CCCN1)C(=O)N[C@@H](CCC(=O)O)C(=O)N[C@@H](CCCC)C(=O)N[C@@H](CCCNC(=N)N)C(=O)N[C@H]1CSSC[C@@H]2NC(=O)[C@H](CCCCN)NC(=O)CNC(=O)[C@H](Cc3ccccc3)NC(=O)[C@H]([C@@H](C)CC)NC(=O)[C@H](CO)NC(=O)CNC(=O)[C@H]([C@@H](C)CC)NC(=O)[C@H](C)NC(=O)[C@H](C)NC(=O)[C@H](CC(C)C)NC(=O)[C@@H]3CSSC[C@@H](C(=O)N[C@@H](Cc4ccc(O)cc4)C(=O)N4CCC[C@H]4C(=O)N[C@@H](CCCNC(=N)N)C(=O)N[C@@H](CCCCN)C(=O)N[C@@H](CO)C(=O)O)NC(=O)[C@H](CCCCN)NC(=O)[C@H](CSSC[C@H](NC(=O)[C@H](CCC(=O)O)NC(=O)[C@H](C(C)C)NC(=O)[C@H](CO)NC(=O)[C@H](C)NC(=O)[C@H](CO)NC1=O)C(=O)N[C@@H](CCCCN)C(=O)N[C@@H](CCC(N)=O)C(=O)N[C@@H](CCCCN)C(=O)N3)NC(=O)[C@H](CCCCN)NC(=O)[C@H](CCCCN)NC(=O)[C@H](CC(N)=O)NC(=O)[C@H](CCCC)NC2=O` [Compound 127] (H-P[Nle]E[Nle]RCSASVECKQKCLAAIGSIFGKC[Nle]NKKCKCYPRKS-OH; disulfide 6-27, 12-32, 16-34), the IC50 is 0.562 nM.

Turning to `CCCC[C@H](NC(=O)[C@@H]1CCCN1)C(=O)N[C@@H](CCC(=O)O)C(=O)N[C@@H](CCCC)C(=O)N[C@@H](CCCNC(=N)N)C(=O)N[C@H]1CSSC[C@@H]2NC(=O)[C@H](CCCCN)NC(=O)CNC(=O)[C@H](Cc3ccccc3)NC(=O)[C@H]([C@@H](C)CC)NC(=O)[C@H](CO)NC(=O)CNC(=O)[C@H]([C@@H](C)CC)NC(=O)[C@H](C)NC(=O)[C@H](C)NC(=O)[C@H](CC(C)C)NC(=O)[C@@H]3CSSC[C@@H](C(=O)N[C@@H](Cc4ccc(O)cc4)C(=O)N4CCC[C@H]4C(=O)N[C@@H](CCCNC(=N)N)C(=O)N[C@@H](Cc4ccccc4)C(=O)N[C@@H](CCC(=O)O)C(=O)O)NC(=O)[C@H](CCCCN)NC(=O)[C@H](CSSC[C@H](NC(=O)[C@H](CCC(=O)O)NC(=O)[C@H](C(C)C)NC(=O)[C@H](CO)NC(=O)[C@H](C)NC(=O)[C@H](CO)NC1=O)C(=O)N[C@@H](CCCCN)C(=O)N[C@@H](CCC(N)=O)C(=O)N[C@@H](CCCCN)C(=O)N3)NC(=O)[C@H](CCCCN)NC(=O)[C@H](CCCCN)NC(=O)[C@H](CC(N)=O)NC(=O)[C@H](CCCC)NC2=O` [Compound 128] (H-P[Nle]E[Nle]RCSASVECKQKCLAAIGSIFGKC[Nle]NKKCKCYPRFE-OH; disulfide 6-27, 12-32, 16-34), the IC50 was determined as 7.18 nM.

Turning to `CCCC[C@H](NC(=O)[C@@H]1CCCN1)C(=O)N[C@@H](CCC(=O)O)C(=O)N[C@@H](CCCC)C(=O)N[C@@H](CCCNC(=N)N)C(=O)N[C@H]1CSSC[C@@H]2NC(=O)[C@H](CCCCN)NC(=O)CNC(=O)[C@H](Cc3ccccc3)NC(=O)[C@H]([C@@H](C)CC)NC(=O)[C@H](CO)NC(=O)CNC(=O)[C@H]([C@@H](C)CC)NC(=O)[C@H](C)NC(=O)[C@H](C)NC(=O)[C@H](CC(C)C)NC(=O)[C@@H]3CSSC[C@@H](C(=O)N[C@@H](Cc4ccc(O)cc4)C(=O)N4CCC[C@H]4C(=O)N[C@@H](CCCNC(=N)N)C(=O)N[C@@H](Cc4c[nH]cn4)C(=O)N[C@@H](CCCNC(=N)N)C(=O)O)NC(=O)[C@H](CCCCN)NC(=O)[C@H](CSSC[C@H](NC(=O)[C@H](CCC(=O)O)NC(=O)[C@H](C(C)C)NC(=O)[C@H](CO)NC(=O)[C@H](C)NC(=O)[C@H](CO)NC1=O)C(=O)N[C@@H](CCCCN)C(=O)N[C@@H](CCC(N)=O)C(=O)N[C@@H](CCCCN)C(=O)N3)NC(=O)[C@H](CCCCN)NC(=O)[C@H](CCCCN)NC(=O)[C@H](CC(N)=O)NC(=O)[C@H](CCCC)NC2=O` [Compound 129] (H-P[Nle]E[Nle]RCSASVECKQKCLAAIGSIFGKC[Nle]NKKCKCYPRHR-OH; disulfide 6-27, 12-32, 16-34), the IC50 is 0.143 nM.

As usually defined, the IC50 is the concentration that gives 50% inhibition.
